Row | SMILES | melting point [°C]
1 | O=C(O)C=Cc1ccc(/C=C/c2ccncc2)cc1 | > 300
2 | COC(=O)NC(=O)c1nc(Cl)c(Cl)[nH]1 | 247
3 | O=S(=O)(c1cn(-c2c(Cl)cc(C(F)(F)F)cc2Cl)c(Cl)n1)C(F)(F)F | 182
4 | COc1ccc(C(=O)NC(=O)NC2CN3CCC2CC3)cc1 (stereo not given) | 166 to 168
5 | Cc1cc(Oc2cc(C(F)(F)F)nn2C)nc(C(=O)O)c1 | 168
6 | COc1ccc2c(c1)C13CCN(C)C(C2)C1OCOC3 (stereo not given) | 134 to 135
7 | Cc1ccc(-c2nn(C(C)(C)C)c(N)c2C#N)cc1 | 174 to 176
8 | CC(C)(C)OC(=O)NCCCCCn1c(=O)c2cccc3ncc(c1=O)n32 | 82 to 83
9 | CS(=O)(=O)c1ccc(-c2cnn(Cc3ccc(F)cc3F)c(=O)c2-c2ccc(F)cc2)cc1 | 179 to 182
10 | CNC(=S)C1(c2ccccn2)CCCCS1 (stereo not given) | 153
11 | Cc1noc(C(=O)NC(C)(C)C)c1C(N)=O | 155 to 158
12 | Cc1cc(Cl)ccc1-n1nc(O)c2c(=O)c3ccc(Cl)cc3[nH]c2c1=O | 336 to 339
13 | CC(C)c1nc(COC(N)=O)n(C)c1Sc1cc(Cl)cc(Cl)c1 | 146 to 148
14 | O=C(CCCCOc1ccccc1)C(F)(F)F | 50 to 51
15 | O=c1ccn(-c2cc3[nH]c(=O)c(=O)[nH]c3cc2[N+](=O)[O-])cc1Cl | > 300
16 | CCCCCCCC(SC)S(=O)(=O)c1ccc(C)cc1 (stereo not given) | 65 to 66
17 | N[C@@H](Cc1ccc(N(CCCl)CCCl)cc1)C(=O)N[C@@H](Cc1cccc(C2CCCC2)c1)C(=O)O | 80 to 90
18 | CC(C)(C)OC(=O)Nc1ccc(C#Cc2ccc(Cl)cc2)cc1N | 170 to 173
19 | C#CCOc1c(OC)cc(/C=C/C(=O)/C=C/c2cc(OC)c(OCC#C)c(OC)c2)cc1OC | 162 to 164
20 | OCc1cc2cc(-c3ccsc3)ccc2o1 | 122 to 124
21 | CC(C)c1cc(S(N)(=O)=O)c(C(C)C)cc1C(=O)O | 225 to 231
22 | C=CCCn1cc([N+](=O)[O-])nc1Br | 28 to 30
23 | O=c1c(CCCCCc2cccnc2)cc2cccnc2n1-c1cccc([N+](=O)[O-])c1 | 155

Row | SMILES | melting point [°C]
24 | CCC(C)C[C@@H]1O[C@H](CC(=O)Nc2cccc(OC(F)(F)C(=O)O)c2)C(=O)N(CC(C)(C)CO)c2ccc(Cl)cc21 (stereo not given in full) | 119 to 121
25 | CCOC(=O)c1ccc(-c2ncc(Cl)nc2Cl)cc1 | 88.5 to 90
26 | CCCCCCCNC(=O)Nc1ccc(N(C)C)cc1C(=O)NCC1CCN(C(c2ccc(Cl)cc2)c2ccc(Cl)cc2)CC1 | 216
27 | O=c1[nH]c2ccc(S(=O)(=O)O)cc2[nH]c1=O | > 300
28 | COc1ccc2c(c1)CC(C(N)=O)N2C(C)=O (stereo not given) | 196 to 197
29 | COCC(=O)NNC1=Nc2sc(Cl)cc2C(c2ccccc2[N+](=O)[O-])=NC1 | 198 to 200
30 | CC(=O)c1ccc(CBr)s1 | 58 to 59
31 | COc1ccc(CSc2nnc(-c3ccn4ncnc4c3)o2)cc1C#N | 247 to 248
32 | COc1cc(Nc2nc3ccnc(-c4ccc(S(N)(=O)=O)cc4)c3o2)cc(OC)c1OC | > 280
33 | CC(Cl)C(=O)Nc1cccc2c1C(=O)c1cccc(NC(=O)C(C)Cl)c1C2=O (stereo not given) | 288 to 289
34 | COc1ccc(-c2cc(=O)[nH]nc2C)cc1 | 255 to 256
35 | Cc1cc2n[nH]c(=O)n2nc1-c1ccc(C#N)cc1 | > 300
36 | CSc1cccc(Oc2ncccc2C(=O)NCc2ccc(C(C)(C)O)cc2)c1 | 107 to 109
37 | COCc1ccc2c(c1)C=Cc1cc(C)ccc1C2c1cn(Cc2nc(C(=O)O)cs2)c(=O)[nH]c1=S (stereo not given) | 140
38 | CN1CCN(C(=NO)C2=Nc3ccc(Cl)cc3C(c3ccccc3F)=NC2)CC1 | 198 to 200
39 | COC(=O)C(C(C)C)N(C)S(=O)(=O)c1ccc(-c2ccc([N+](=O)[O-])cc2)cc1 (stereo not given) | 117 to 118
40 | C=C(C)C(=O)OCCNC(=O)Nc1nc(=O)cc(C)[nH]1 | 208
41 | CCOC(=O)c1nc(C=Cc2ccc(Cl)cc2)oc1C | 105 to 106
42 | CC(=S)NC[C@H]1CN(c2ccc3c(c2)CCCc2cnoc2-3)C(=O)O1 | 185 to 195
43 | CCNCC1CCN(c2c(F)cc3c(=O)c(C(=O)O)cn(C4CC4)c3c2F)C1 (stereo not given) | 256 to 258
44 | O=C(O)CCCc1cc2nc(Cl)ccc2n1S(=O)(=O)c1ccc2snnc2c1 | 227
45 | C=CC(O)c1[nH]c(=O)c2c(ccc3nc(Nc4c(Cl)cccc4Cl)n(C)c32)c1C (stereo not given) | 235 to 236
46 | Cc1ccc(C)c(OCCO)c1 | 45 to 48

Row | SMILES | melting point [°C]
47 | CCCCSc1ccc(/C=C\C(C)=O)cc1[N+](=O)[O-] | 100
48 | CCOC(=O)[C@H]1O[C@@H]1C(=O)N[C@H](CNC(=O)c1ccccc1)CC(C)C | 126 to 129
49 | COc1cc(Nc2nccc(-c3ccc(N4CCC(O)CC4)nc3)n2)cc(OC)c1OC | 127 to 128
50 | N#Cc1ccc(-c2cc(F)c(F)c(OC3SCC(O)C(O)C3O)c2)cn1 (stereo not given) | 173
51 | CC(C)(C)OC(=O)N[C@H]1COc2ccccc2NC1=O | 202 to 203
52 | OCC1OC(n2cnc3c(-n4cccc4)ncnc32)C(O)C1O (stereo not given) | 114 to 115
53 | Cc1cc(-c2nnn(C)n2)cc(C)c1OCCCn1ncnc1C | 126 to 128
54 | CCCCCCCCCCOc1cc(OCCCCCCc2cccc(O)c2O)cc(C(=O)O)c1 | 86 to 88
55 | Cc1cccc(COc2cccc(OCc3ccc(C(C)(C)C)cc3)c2)c1C(=O)O | 122 to 123
56 | CC1(C)CC(=O)C(C)(C)c2cc(/C=C/c3ccc(C(=O)O)cc3)c(Cn3cccn3)cc21 | 265 to 266
57 | CCNC1CN(c2cc3c(cc2F)c(=O)c(C(=O)O)cn3C2CC2)C1 | 220 to 224
58 | CCN(CC)CCC(=O)Nc1ccc2c(=O)c3ccc(NC(=O)CCN(CC)CC)cc3[nH]c2c1 | > 320
59 | COC(=O)c1sc(C)c(Cl)c1O | 105 to 107
60 | COC(=O)c1cc(C(C)=O)c(O)cc1O | 124 to 126
61 | CCn1cnc(S(=O)(=O)O)c1 | 278
62 | COc1cc(C)nc(NC(=O)NS(=O)(=O)c2c(Br)csc2C(=O)c2cccs2)n1 | 106
63 | CCOc1cc(OCCCc2cn(-c3ccccn3)nc2OCC)ccc1CCC(=O)O | 110 to 111
64 | CCOc1ccc([N+](=O)[O-])c(C=C2NC(=O)NC2=O)c1 | 243 to 245
65 | CCOC(=O)C(Cc1cscn1)NC(C)=O (racemic) | 58 to 62
66 | CCNC(=O)c1sc(C=O)cc1[Si](C)(C)C | 62 to 65
67 | CC1=C(C#N)S(=O)(=O)c2ccc(C(F)(F)F)cc2N1 | 329 to 333
68 | CC(=O)OCc1c(C(=O)C(=O)O)c2cc(-c3ccc(OC(F)(F)F)cc3)ccc2n1Cc1ccc(C)cc1 | 79 to 80
69 | CC1=C(CC(=O)O)c2cc(F)c(F)cc2C1=Cc1ccc(S(C)=O)cc1 (stereo not given) | 200 to 210

More lines, now with the values ahead:

Row | melting point [°C] | SMILES
70 | 152 | Cc1ccccc1C1c2ccccc2S(=O)(=O)N1C (single isomer, unassigned; (+))
71 | 106 to 108 | CC(=O)N(O)C(C)c1cn(C)c2ccccc12 (stereo not given)
72 | 159 to 161 | COC(=O)c1ccc(CCn2ccn(C3CCc4ccccc4C3)c2=S)cc1 (stereo not given)
73 | 75 to 84 | Cc1cc2c(s1)Nc1ccccc1N=C2N1CCN[C@@H](CCc2ccccc2)C1
74 | 194 | CCCCNC(=O)c1ccc2c(=O)nc(-c3ccccn3)sc2c1
75 | 130 | O=C(O)c1c(Cc2cc3c(cc2Cl)OCO3)c(-c2ccccc2)nn1CC1CCCC(C(=O)O)C1 (stereo not given)
76 | 110 to 112 | c1ccc(CN2CCC(c3nc(-c4ccc(-c5ccccc5)cc4)c[nH]3)CC2)cc1
77 | 182 to 184 | Cc1ccc(C)n1N1C(=O)c2ccccc2C1=O
78 | 360 to 364 | NC(=O)c1nc(-c2cccc(O)c2)nc2c1[nH]c(=O)n2-c1ccccc1Cl
79 | 228 to 230 | COc1cc(C(=N)N)ccc1OCc1ccc(CN2C(=O)c3ccccc3C2=O)cc1
80 | 104 to 106 | O=C1CSC=C2c3ccccc3C=CN12
81 | 133 to 136 | CC(=O)N1CCC(=O)C(C(c2ccccc2)c2ccccc2)C1 (stereo not given)
82 | 237 | O=C(O)CCOCCc1cccc(-c2nc(=O)c3ccccc3s2)n1
83 | 182 to 185 | O=C1NCCc2[nH]c3c(OCc4ccccc4)cccc3c21
84 | 225 | O=C(O)CCCc1cc2nc(Cl)ccc2n1S(=O)(=O)c1ccc2c(c1)CCO2
85 | > 250 | S=c1[nH]c2cc(Cl)cc(OCCNCc3ccccc3)c2[nH]1

Row | melting point [°C] | SMILES
86 | 233 to 235 | CCNc1nc2c(N)nc3ccccc3c2n1CC(C)(C)O
87 | 80 to 81 | Cc1oc(-c2ccccc2)nc1COc1ccc(CCCBr)cc1
88 | 116 to 118 | COC(=O)c1ccc(CC(C#N)(c2ccccc2Cl)N2CCOCC2)cc1 (stereo not given)
89 | 74 to 76 | O=C(O)C(O)Cc1ccc(OCCN2CCSc3ccccc32)cc1 (stereo not given)
90 | 85.4 to 86 | COCCOCn1c2ccccc2c2c(C)c(C(=O)OC)sc21
91 | 98 to 99 | COc1cc(Nc2c(C#N)cnc3cc(/C=C/CCCCCCCCCN4CCOCC4)c(OC)cc23)c(Cl)cc1Cl
92 | 114 to 116 | O=S(CCCCCOc1ccc(C2=C(c3ccccc3)CCCc3ccccc32)cc1)CCCC(F)(F)C(F)(F)F (stereo not given)
93 | 66 to 68 | CC(Cc1ccccc1C(=O)O)c1cccs1 (stereo not given)
94 | 65 to 66 | c1ccc2c(c1)OCCc1c-2n(CCCN2CCCCC2)c2ccccc12
95 | 166 to 168 | C=CCN1CCC2(CC1)CSC1=C(O2)c2ccccc2C(=O)C1=O
96 | 184 to 186 | CCOC(=O)CNC(=O)c1oc2cc(-c3ccc(Cn4c(C)nc5ccccc54)cc3)ccc2c1C
97 | 146 to 149 | O=c1oc(-c2ccccc2)cc(O)c1SCCOc1ccccc1
98 | 280 to 284 | O=C(Nc1ccc(C(=O)N2CCc3cn[nH]c3-c3sccc32)cc1)c1ccccc1-c1ccccc1
99 | 183 to 185 | CCn1c2ccccc2c2cc(C#N)ccc21
100 | 74 to 80 | CCCOC1=Nc2c(ncn2-c2ccccc2)C2=N[C@@H](Cc3ccccc3)CN12
